From patent US20260273025A1, “TREATMENT AND PREVENTION OF OSTEOPOROSIS IN HIGH BODY MASS INDEX INDIVIDUALS” (Radius Health, Inc., priority 2021, published 2026)
“Also recorded” adds a separate entry of the source.

Tests used:
[1] = system: subjects treated with abaloparatide; assay: Bone turnover markers PINP and CTX in treated subjects; format: in vivo, human
[2] = system: postmenopausal osteoporotic women; assay: ACTIVE Phase 3 trial, post hoc high BMI subgroup: new vertebral fractures; format: in vivo, human; settings: overweight population, 18 months; for relative risk reduction of new vertebral fractures versus placebo: abaloparatide 80 μg or teriparatide 20 μg daily subcutaneous
Protocol: (§1) The ACTIVE pivotal Phase 3 fracture prevention trial for the PTHrP analogue abaloparatide, Study BA058-05-003 (see ClinicalTrials.gov), was a randomized, double-blind, placebo-controlled trial in postmenopausal osteoporotic women randomized to receive daily doses of one of the following for 18 months: 80 micrograms (μg) of abaloparatide; a matching placebo; or the approved daily dose of 20 μg of teriparatide. Treatment with abaloparatide at a daily dose of 80 μg or placebo remained blinded to all parties throughout the study. Teriparatide used was a proprietary prefilled drug and device combination that could not be repackaged. Therefore, its identity could not be blinded to treating physicians and patients once use began. Study medication was self-administered daily by subcutaneous injection for a maximum of 18 months. All enrolled patients also received calcium and vitamin D supplementation from the time of enrollment until the end of the treatment period. It was recommended to patients that they also continue these supplements through the one-month follow-up period.
(§2) The trial completed enrollment in March 2013 with 2,463 patients at 28 medical centers in 10 countries in the United States, Europe, Latin America, and Asia. In a post hoc analysis, a subgroup of overweight patients, patients with high BMI (≥27 kg/m^2, ≥24 kg/m^2 for Asian patients) was evaluated. The baseline characteristics of this sub-group of patients are detailed in Table 1 below.
(§3) The study enrolled otherwise healthy ambulatory women aged 49 to 86 (inclusive) who had been postmenopausal for at least five years, met the study entry criteria, and had provided written informed consent. […] All patients were to be in good general health as determined by medical history, physical examination (including vital signs), and clinical laboratory testing. This study population contained a patient population reflective of the type of severe osteoporosis patients that specialists would be expected to treat in their practices.
The study endpoints included BMD, new vertebral fractures, nonvertebral fractures (fractures excluding those of the spine, sternum, patella, digits, skull, and face and those with high trauma), any clinical fractures (all fractures causing a patient to seek medical care), and major osteoporotic fractures (fractures of the upper arm, wrist, hip, or clinical spine). […] Time to first incident nonvertebral, clinical, major osteoporotic, and wrist fracture assessed using Kaplan-Meier (KM) method; log-rank test (intent-to-treat [ITT] population). Change from baseline BMD evaluated for total hip, femoral neck, and lumbar spine (missing data points imputed by last observation carried forward; ITT population).

[3] = system: postmenopausal osteoporotic women; assay: ACTIVE Phase 3 trial, post hoc high BMI subgroup: nonvertebral, clinical, major osteoporotic and wrist fractures (Kaplan-Meier); format: in vivo, human
Protocol: as §1, §2, §3
(§4) The study endpoints included BMD, new vertebral fractures, nonvertebral fractures (fractures excluding those of the spine, sternum, patella, digits, skull, and face and those with high trauma), any clinical fractures (all fractures causing a patient to seek medical care), and major osteoporotic fractures (fractures of the upper arm, wrist, hip, or clinical spine). New vertebral fracture compared using Fisher exact test (modified intent-to-treat [mITT] population; participants with pretreatment/postbaseline spine x-rays). Time to first incident nonvertebral, clinical, major osteoporotic, and wrist fracture assessed using Kaplan-Meier (KM) method; log-rank test (intent-to-treat [ITT] population). Change from baseline BMD evaluated for total hip, femoral neck, and lumbar spine (missing data points imputed by last observation carried forward; ITT population).

[4] = system: ovariectomy-induced osteopenic monkeys; settings: cited from earlier work
[5] = system: subjects treated with abaloparatide; assay: Abaloparatide for 18 months followed by anti-resorptive therapy: fracture risk; format: in vivo, human; settings: abaloparatide 18 months followed by anti-resorptive therapy (e.g., alendronate for 6 months)
[6] = system: ovariectomy-induced osteopenic rats; settings: cited from earlier work
[7] = system: postmenopausal osteoporotic women; assay: ACTIVE Phase 3 trial, post hoc high BMI subgroup: safety, treatment-emergent adverse events; format: in vivo, human; settings: for Creatine renal clearance increased, (%): human
Protocol: as §1, §2
Safety evaluations performed in the ACTIVE trial included physical examinations, vital signs, 12-lead electrocardiograms, or ECGs, clinical laboratory tests and monitoring, and recording of adverse events. Specific safety assessments included pre-dose and post-dose (four hours) determination of serum calcium, determination of creatinine clearance, post-dose ECG assessments at selected visits, and assessments of postural hypotension (60 minutes post-dose) at selected clinic visits.
The ACTIVE trial also evaluated several potential safety measures. The treatment-emergent adverse events (TEAEs) reported by the overweight patients are summarized below in Table 2 for groups treated with placebo, abaloparatide, and teriparatide, respectively.

[8] = system: postmenopausal osteoporotic women; assay: ACTIVE Phase 3 trial, post hoc high BMI subgroup: BMD percent change from baseline; format: in vivo, human; settings: for BMD increase as compared to placebo: total hip, femoral neck, lumbar spine
Protocol: as §1, §2, §3, §4

[9] = system: subjects treated with abaloparatide; assay: Trabecular bone score (TBS) in treated subjects; format: in vivo, human
Excerpt: TBS is also a predictor of fragility fractures of the spine and hip in postmenopausal overweight women independent of BMD and other major clinical risk factors. As such, it captures additional patients at risk of fracture that are missed by BMD alone, and together with BMD more accurately captures bone strength.

[10] = overweight population, 18 months
[11] = overweight patients, abaloparatide n = 262, teriparatide n = 281
[12] = overweight patients, 6, 12 and 18 months

Molecule: abaloparatide
- CTX marker (bone resorption) ([1]; at 18 months): quick return to the baseline
- bone formation marker PINP ([1]; human, in vivo): earlier increase
- new vertebral fractures, reduction vs. placebo [2]: statistically significant reduction; also recorded: significant risk reduction
- relative risk reduction of new vertebral fractures versus placebo [2]: 81%
- clinical fractures, reduction versus placebo [3, 10]: statistically significant reduction; also recorded: numerical reduction
- major osteoporotic fractures (MOF), reduction versus placebo (Kaplan-Meier estimated cumulative incidence) [3, 10]: statistically significant reduction; also recorded: significant risk reduction
- non-vertebral fractures (NVF), reduction versus placebo (Kaplan-Meier estimated cumulative incidence) [3, 10]: statistically significant reduction; also recorded: significant risk reduction
- wrist fracture, reduction versus placebo [3, 10]: numerical reduction
- effect on NVF, clinical fractures, MOF and wrist fractures compared with teriparatide ([3]; overweight population, all categories): significantly better than teriparatide
- risk of major osteoporotic fracture and any clinical fracture, irrespective of baseline fracture probability (FRAX) ([3]; postmenopausal overweight women): significantly decrease
- bone loss [4]: complete reversal of bone loss
- fracture risk versus placebo for 18 months followed by similar anti-resorptive therapy [5]: significant reduction
- bone loss [6]: complete reversal of bone loss
- Creatine renal clearance increased, (%) ([7]; in vivo): (5.7) %
- Arthralgia, (%) ([7]; in vivo): (9.2) %
- Back pain, (%) ([7]; in vivo): (8.0) %
- Discontinuations, (%) ([7]; in vivo): (5.7) %
- Dizziness, (%) ([7]; in vivo): (11.1) %
- Urinary tract infection, (%) ([7]; in vivo): (6.9) %
- ≥1 TEAE, (%) ([7]; in vivo): (91.6) %
- Deaths, (%) [7, 11]: (0.8) %
- Headache, (%) [7, 11]: (5.0) %
- Hypercalciuria, (%) [7, 11]: (9.5) %
- Hypertension, (%) [7, 11]: (9.5) %
- Influenza, (%) [7, 11]: (6.1) %
- Nasopharyngitis, (%) [7, 11]: (5.0) %
- Nausea, (%) [7, 11]: (6.1) %
- Pain in extremity, (%) [7, 11]: (6.9) %
- Serious TEAEs, (%) [7, 11]: (13.7) %
- Upper respiratory tract infection, (%) [7, 11]: (8.8) %
- lumbar spine BMD versus placebo ([8]; at 6 months and 12 months): statistically significant increase
- lumbar spine BMD ([8]; at 18 months): non-statistically significant BMD increase
- BMD increase at total hip as compared to teriparatide [8, 12]: significantly greater BMD increase
- BMD increase for lumbar spine as compared to teriparatide ([8]; overweight patients, 6 months): significantly greater BMD increase
- BMD increase at the femoral neck as compared to teriparatide ([8]; overweight patients, 12 and 18 months): significantly greater BMD increase
- BMD increase as compared to placebo [8, 12]: significant improvements
- BMD increase as compared to placebo ([8]; overweight patients, 6, 12 and 18 months, listed as abaloparatide): significantly greater BMD increase
- BMD in total hip and femoral neck versus teriparatide or placebo ([8]; treated for 18 months): significant BMD increase
- trabecular bone score (TBS) ([9]; daily dose of 20 μg, 40 μg or 80 μg for 12 weeks to 24 weeks): significantly increase TBS
- trabecular bone score (TBS) ([9]; human, in vivo): significant increase

Molecule: CC[C@H](C)[C@H](NC(=O)[C@H](CCC(=O)O)NC(=O)[C@H](CO)NC(=O)[C@@H](NC(=O)[C@@H](N)CO)C(C)C)C(=O)N[C@@H](CCC(N)=O)C(=O)N[C@@H](CC(C)C)C(=O)N[C@@H](CCSC)C(=O)N[C@@H](Cc1cnc[nH]1)C(=O)N[C@@H](CC(N)=O)C(=O)N[C@@H](CC(C)C)C(=O)NCC(=O)N[C@@H](CCCCN)C(=O)N[C@@H](Cc1cnc[nH]1)C(=O)N[C@@H](CC(C)C)C(=O)N[C@@H](CC(N)=O)C(=O)N[C@@H](CO)C(=O)N[C@@H](CCSC)C(=O)N[C@@H](CCC(=O)O)C(=O)N[C@@H](CCCN=C(N)N)C(=O)N[C@H](C(=O)N[C@@H](CCC(=O)O)C(=O)N[C@@H](Cc1c[nH]c2ccccc12)C(=O)N[C@@H](CC(C)C)C(=O)N[C@@H](CCCN=C(N)N)C(=O)N[C@@H](CCCCN)C(=O)N[C@@H](CCCCN)C(=O)N[C@@H](CC(C)C)C(=O)N[C@@H](CCC(N)=O)C(=O)N[C@@H](CC(=O)O)C(=O)N[C@H](C(=O)N[C@@H](Cc1cnc[nH]1)C(=O)N[C@@H](CC(N)=O)C(=O)N[C@@H](Cc1ccccc1)C(=O)O)C(C)C)C(C)C [Teriparatide, teriparatide]
- new vertebral fractures, reduction vs. placebo [2]: significant reduction
- relative risk reduction of new vertebral fractures versus placebo [2]: 74%
- major osteoporotic fractures (MOF), reduction versus placebo (Kaplan-Meier estimated cumulative incidence) [3, 10]: Significant reduction
- non-vertebral fractures (NVF), reduction versus placebo (Kaplan-Meier estimated cumulative incidence) [3, 10]: Significant reduction
- Creatine renal clearance increased, (%) ([7]; in vivo): (4.6) %
- Arthralgia, (%) ([7]; in vivo): (7.1) %
- Back pain, (%) ([7]; in vivo): (7.5) %
- Discontinuations, (%) ([7]; in vivo): (7.5) %
- Dizziness, (%) ([7]; in vivo): (8.2) %
- Headache, (%) ([7]; in vivo): (6.8) %
- Hypercalciuria, (%) ([7]; in vivo): (9.3) %
- Hypertension, (%) ([7]; in vivo): (6.4) %
- Nasopharyngitis, (%) ([7]; in vivo): (5.3) %
- Nausea, (%) ([7]; in vivo): (3.9) %
- Pain in extremity, (%) ([7]; in vivo): (3.6) %
- Serious TEAEs, (%) ([7]; in vivo): (13.9) %
- ≥1 TEAE, (%) ([7]; in vivo): (89.3) %
- Deaths, (%) [7, 11]: (0.4) %
- Influenza, (%) [7, 11]: (3.9) %
- Upper respiratory tract infection, (%) [7, 11]: (9.6) %
- Urinary tract infection, (%) [7, 11]: (6.8) %
- delay compared with the abaloparatide group to achieve the same level of BMD increase at total hip and femoral neck ([8]; overweight patients): about 6 months
- BMD increase as compared to placebo [8, 12]: significantly greater BMD increase
